Laboratory results published in ChEMBL document CHEMBL1151065, “Antiproliferative activity of haloosmocenium ions against human and murine cancer cell lines” (Bioorg Med Chem Lett, 1994).

How the values were obtained:
[1] = test system: COLO 320; test: Antiproliferative effect against human COLO 320 colon adenocarcinoma cells; type: functional, cell-based
[2] = test system: CCRF S-180; test: Antiproliferative effect against mouse S180 sarcoma cells; type: functional, cell-based
[3] = test system: Daudi; test: Antiproliferative effect against human Daudi Burkitt lymphoma cells; type: functional, cell-based
[4] = test system: HL-60; test: Antiproliferative effect against human HL60 promyelocytic leukemia cells; type: functional, cell-based
[5] = test system: LX-830 cell line; test: Antiproliferative effect against mouse LX830 lymphoma cells; type: functional, cell-based
[6] = test system: U-937; test: Antiproliferative effect against human U937 histiocytic lymphoma cells; type: functional, cell-based
[7] = test system: NIH3T3; test: Antiproliferative effect against mouse NIH3T3 embryonic cells; type: functional, cell-based
[8] = test system: U-937; test: Rate of oxygen consumption of human U937 cells (10e7 cells) at 10 uM concentration was determined at 30degreeC, with control value 14.5; type: functional, cell-based
[9] = Redox potential from cyclic voltammogram; type: physicochemical
[10] = test system: LX-830 cell line; test: Antiproliferative effect against mouse LX830 lymphoma cells; inactive; type: functional, cell-based
[11] = test system: U-937; test: Rate of oxygen consumption of human U937 cells (10e7 cells) at 200 uM concentration was determined at 30 degree C; type: functional, cell-based
[12] = Rate of oxidation by the compound at 0.44 mM versus 0.49 mM of reduced cytochrome was determined at 30 degree C
[13] = Rate of oxidation by the compound at 0.5 mM versus 0.24 mM of NADH was determined

IC50 [1] [µM]	IC50 [2] [µM]	IC50 [3] [µM]	IC50 [4] [µM]	IC50 [6] [µM]	E0 [9]	Oxidation rate [12] [nM/min]	Oxidation rate [13] [µM/min]	Substance	IC50 [5] [µM]	IC50 [7] [µM]	Oxygen consumption rate [8] [nM/min]	IC50 [10]	Oxygen consumption rate [11] [nM/min]
6.6	0.8	1.7	4.3	5.2	–	–	–	CISPLATIN [listing 1 of 2 here]	13.2	0.3	–	–	–
–	–	–	–	–	–	–	–	CISPLATIN [listing 2 of 2 here]	–	–	13.4	–	–
> 200	120	79	75	196	0.46	–	–	osmium(2+) ion bis(cyclopenta-1,3-diene) hexafluoro-phosphanuide iodide [listing 1 of 2 here]	–	87	–	Not Active	–
–	–	–	–	–	–	824	8	osmium(2+) ion bis(cyclopenta-1,3-diene) hexafluoro-phosphanuide iodide [listing 2 of 2 here]	–	–	–	–	10.5
